# Columns and labels:
# [1] = test system: Syk; experiment: Syk expression by Western blot in T cells transfected with Syk siRNA; type: cell-based; settings: T cells electroporated with siRNA at 0.5, 0.7, 0.9, 1.5 and 2 μM per million, approximately 72 hours
# Experimental: Different concentrations (0.5, 0.7, 0.9, 1.5, and 2 μM per million) of T cells were transfected by electroporation using Amexa Nucleofector solution. Briefly, a total of 5×10^6 T cells were re-suspended in 100 μl Nucleofector solution (Lonza Walkerrsville Inc.; Walkersville, Md.). The desired amount of Syk siRNA was mixed in with the T cell/nucleofector suspension and electrporated. The transfected cells were plated in RPMI-1640 medium without any antibiotic and incubated for approximately 72 hours. After proper incubation, transfected T cells were lysed in RIPA buffer, and Western blotting was performed with an antibody against total Syk (Clone 4D10; Santa Cruz Biotechnology, Inc.; Santa Cruz, Calif.).
# [2] = molecular target: T1, phosphorylated Syk (p-Syk) (Mus musculus, UniProt P48025); experiment: p-Syk staining in intestine and lung by IHC and IF; type: in vivo; settings: I/R mice group, Syk inhibitor treatment, 3-hour reperfusion
# T1 construct: formalin-fixed paraffin sections of intestine and lung were subjected to rehydration and antigen retrieval; from tissue; host or cells: intestine and lung of C57BL/6J mice
# Text: (§1) In order to perform immunohistochemistry (IHC) staining, formalin-fixed paraffin sections of intestine and lung were subjected to rehydration and antigen retrieval using a standard protocol. For IHC studies, the following reagents were used: rabbit anti-mouse Syk (N-19) (Santa Cruz, Calif.), rabbit anti-mouse p-Syk (phospho Y323) (Abeam, Inc.), and rabbit anti-mouse C3 (B-9) (Santa Cruz, Calif.).
# (§2) For immunofluorescence (IF) staining, formalin-fixed paraffin-embedded sections were blocked with 10% BSA-PBS at room temperature for 1 hour and incubated with FITC-labeled primary or secondary antibodies at room temperature for 1 hour. The slides were washed, and coverslips were mounted with Dako Fluorescent mounting medium and analyzed by confocal microscopy (Nikon Eclipse Ti, Nikon Instruments, Melville, N.Y.). FITC-labeled goat anti-mouse IgG (Santa Cruz, Calif., sc2010), FITC-labeled rat anti-mouse C3 (11H9) (Santa Cruz, Calif., sc-58926), FITC-labeled goat anti-mouse IgM (Southern Biotech, 1021-02), and FITC-labeled rat anti-mouse Ly-6G and LY-6C (Clone R6B-8C5) (BD Pharmingen) were the antibodies used in these studies.
# Because the Syk inhibitor suppresses the expression of phosphorylated Syk (p-Syk), the active form of Syk, we performed p-Syk staining by using IHC and IF. We observed staining in I/R group mice. […] After a 3-hour reperfusion, we detected only slight p-Syk staining.
# [3] = test system: C57BL/6J mice subjected to mesenteric I/R (lung); experiment: Remote lung injury scoring (H&E) after mesenteric ischemia-reperfusion; type: in vivo, mouse; settings: mean±SEM; for total lung injury score: I/R mice, 3 h reperfusion, scale 0-18
# Text: (§3) Mice were randomly assigned to the following experimental groups: (a) mouse chow+sham procedures, (b) mouse chow+I/R procedures, (c) control chow+sham procedures, (d) control chow+I/R procedures, (e) R788 (3 g/kg)+sham procedures, (f) R788 (3 g/kg)+I/R procedures, and (g) R788 (5 g/kg)+I/R procedures […].
# (§4) Syk inhibitor R788 was provided by Rigel Pharmaceuticals (South San Francisco, Calif.). Mice were fed food containing R788 (3 g/kg of chow, n=6 or 5 g/kg of chow, n=3), control chow (n=6), or regular chow (n=6). Food was prepared by Research Diets, Inc. (New Brunswick, N.J.). C57BL/6J mice were fed the R788-containing chow ad libitum for 6 days prior to experimentation in order to determine the effect of R788 on I/R injury.
# Animals underwent I/R as had been described previously (Chiu et al., Arch Surg. 101: 478-483, 1970 and Fleming et al., J Immunol. 169: 2126-2133, 2002). Briefly, we performed a midline laparotomy before a 30-minute equilibration period. […] The laparotomy incisions were sutured with 4.0 SOFSILK™, the mice resuscitated with 1.0 mL pre-warmed sterile phosphate-buffered saline (PBS) subcutaneously, and monitored during the reperfusion period. […]
# Alveolar and periluminal injury scores in each lung section were calculated based on Cooke's method (Cooke et al., Blood 8: 3230-3239, 1996). For each lung section, we examined 10-20 fields at high power field magnification (400×) and scored for alveolar infiltration on a 3-tiered scale. The calculation of alveolar scores was as follows: when no infiltrate was present, a score of 0 was given; when the infiltrate could be visualized easily only at 400×, a score of 1 was assigned; when infiltrates were readily visible, a score of 2 was assigned; and the score for consolidation was 3. Similarly, each section was scored for periluminal damage (airway or blood vessel) at 100×. […] Based on the overall involvement of the section, a severity score was calculated: the severity score for 0-25% involvement was 1; a severity score of 2 was assigned for 25-50% involvement; and the severity score for >50% involvement was 3. […]
# [4] = test system: neutrophil infiltration; experiment: Neutrophil infiltration (GR-1 staining) in intestine and lung; type: in vivo, mouse
# Experimental: as §2
# Therefore, we evaluated the presence of neutrophils in the intestine and lung after sham and I/R procedures in mice treated with Syk inhibitor. Mice subjected to I/R had more prominent GR-1 staining within the intestinal tissue after 3-hour reperfusion when compared to the sham-operated mice group.
# [5] = test system: IgM deposition; experiment: IgM staining in intestine and lung by immunofluorescence; type: in vivo, mouse; settings: I/R intestinal and lung samples, both tissues
# Experimental: as §2
# Reperfusion after ischemia induced alteration of the endothelial membrane and allows neoantigen expression. Circulating natural IgM antibodies bind to these antigens and may trigger complement-mediated injury (Williams et al., J Applied Physiol. 86: 938-942, 1999). Therefore, we performed IgM staining by IF, as described above. There was increased IgM staining in I/R intestinal and lung samples when compared to the sham tissues. […] Unlike the differences detected for natural IgM staining, we were only able to detect minimal IgG staining in all groups (data not shown).
# [6] = test system: complement component 3 protein (C3) deposition; experiment: C3 deposition in intestine and lung by IHC and IF; type: in vivo, mouse; settings: I/R mice treated with Syk inhibitor
# Text: as §1, §2
# It has been reported that I/R activates the complement system, as indicated by C3 deposition on the intestine (Williams et al., supra). […]
# [7] = test system: C57BL/6J mice subjected to mesenteric I/R (intestine); experiment: Intestinal mucosal injury scoring (H&E) after mesenteric ischemia-reperfusion; type: in vivo, mouse; settings: mean±SEM; for intestinal injury score (mucosal injury score): I/R mice, 30 min ischemia, 3 h reperfusion, scale 0-6
# Text: as §3, §4
# Animals underwent I/R as had been described previously (Chiu et al., Arch Surg. 101: 478-483, 1970 and Fleming et al., J Immunol. 169: 2126-2133, 2002). Briefly, we performed a midline laparotomy before a 30-minute equilibration period. […] A small non-traumatic microvascular clip delivering approximately 85 grams of pressure was then applied for 30 minutes. The clip was removed after this ischemia phase, and the intestines were allowed to reperfuse for 3 hours. Sham-operated mice underwent the above-described surgical intervention without artery occlusion. The laparotomy incisions were sutured with 4.0 SOFSILK™, the mice resuscitated with 1.0 mL pre-warmed sterile phosphate-buffered saline (PBS) subcutaneously, and monitored during the reperfusion period. […]
# For histological analysis, 20-cm segments of small intestine specimens were fixed in 10% buffered formalin phosphate immediately after euthanasia. […] To summarize, a normal villus was assigned a score of 0; villi with tip distortion were scored as 1; villi without goblet cells and with Guggenheims' spaces were scored as 2; villi with patchy disruption of the epithelial cells were scored as 3; villi with exposed but intact lamina propria and sloughing of epithelial cell were scored as 4; villi with exuding lamina propria were scored as 5; and villi with hemorrhage or denudation were scored as 6. […]
# [8] = molecular target: T2, Syk (Mus musculus, UniProt P48025); experiment: Syk staining in intestine and lung by immunohistochemistry; type: in vivo; settings: pre-treatment with Syk inhibitor, IHC
# T2 construct: formalin-fixed paraffin sections of intestine and lung were subjected to rehydration and antigen retrieval; from tissue; host or cells: intestine and lung of C57BL/6J mice
# Experimental: as §1
# Syk expression in the intestine and lung were evaluated by IHC. Syk staining in intestines and lungs were more prominent in I/R groups than in sham-operated groups.
# [9] = sham-operated mice, Syk inhibitor (R788 3 g/kg chow)
# T1 sequence (P48025 whole entry, the tested form may be a part): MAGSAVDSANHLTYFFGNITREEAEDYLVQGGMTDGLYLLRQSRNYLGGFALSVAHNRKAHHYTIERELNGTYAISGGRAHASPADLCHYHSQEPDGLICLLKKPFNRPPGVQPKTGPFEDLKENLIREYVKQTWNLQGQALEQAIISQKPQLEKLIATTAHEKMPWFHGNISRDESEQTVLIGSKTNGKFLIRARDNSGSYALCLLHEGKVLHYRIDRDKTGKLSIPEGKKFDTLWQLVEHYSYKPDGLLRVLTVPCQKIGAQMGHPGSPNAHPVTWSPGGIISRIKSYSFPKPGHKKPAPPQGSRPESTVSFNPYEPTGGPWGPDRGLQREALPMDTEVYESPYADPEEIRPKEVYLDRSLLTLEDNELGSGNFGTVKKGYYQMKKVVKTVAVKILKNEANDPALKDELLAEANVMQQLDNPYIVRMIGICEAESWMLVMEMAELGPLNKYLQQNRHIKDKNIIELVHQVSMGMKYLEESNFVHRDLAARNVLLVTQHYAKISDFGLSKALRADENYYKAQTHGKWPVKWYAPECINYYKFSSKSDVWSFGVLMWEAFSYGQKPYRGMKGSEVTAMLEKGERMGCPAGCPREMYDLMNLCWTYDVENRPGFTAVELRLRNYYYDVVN
# T2 sequence (P48025 whole entry): as the sequence (P48025 whole entry, the tested form may be a part) above
molecule,measurement,setting,value
"SEQ ID NOs: 1 and 2: Syk-specific siRNA pair: sense GGAUAAGAACAUCAUAGAAtt, antisense UUCUAUGAUGUUCUUAUCCtt (sense GGAUAAGAACAUCAUAGAATT; antisense UUCUAUGAUGUUCUUAUCCTT; chemistry not given here)",Syk expression (Western blot),[1],can be inhibited
COc1cc(Nc2ncc(F)c(Nc3ccc4c(n3)N(COP(=O)(O)O)C(=O)C(C)(C)O4)n2)cc(OC)c1OC [R788],p-Syk staining in the lung and intestine,[2],eliminated p-Syk staining
same,total lung injury score,[3]; 3 g/kg R788 in chow for 6 days,1.36±0.18
same,total lung injury score,[3]; 5 g/kg R788 in chow for 6 days,1.1±0.46
same,average pulmonary damage score,[3]; [9],1.03±0.26
same,I/R-induced neutrophil infiltration (GR-1 staining),"[4]; intestinal tissue, 3-hour reperfusion",prevented I/R-induced neutrophil infiltration
same,neutrophil infiltration in the lung tissues,"[4]; lung tissue, I/R mice",decreased infiltration
same,IgM deposition (immunofluorescence staining),[5],reduced IgM deposition
same,C3 staining in the intestinal mucosa,[6]; intestine,attenuated C3 staining
same,C3 deposition in the lungs,[6]; lung,limited C3 deposition
same,intestinal injury score (mucosal injury score),[7]; 3 g/kg R788 in chow for 6 days,0.58±0.08
same,intestinal injury score (mucosal injury score),[7]; 5 g/kg R788 in chow for 6 days,0.92±0.14
same,intestinal injury score,[7]; [9],0.42±+0.33
same,Syk staining in either the intestine or the lung,[8],did not cause any changes
"SEQ ID NOs: 5 and 6: Syk-specific siRNA pair: sense GCACUAUCGCAUCGACAAAtt, antisense UUUGUCGAUGCGAUAGUGCag (sense GCACUAUCGCAUCGACAAATT; antisense UUUGUCGAUGCGAUAGUGCAG; chemistry not given here)",Syk expression (Western blot),[1],can be inhibited
"SEQ ID NOs: 3 and 4: Syk-specific siRNA pair: sense CGCUCUUAAAGAUGAGUUAtt, antisense UAACUCAUCUUUAAGAGCGgg (sense CGCUCUUAAAGAUGAGUUATT; antisense UAACUCAUCUUUAAGAGCGGG; chemistry not given here)",Syk expression (Western blot),[1],can be inhibited

# Reference: patent US10028975B2, “Methods for treating ischemia-reperfusion injury” (Beth Israel Deaconess Medical Center, Inc., priority 2010, dated 2018)
